Here are results for two molecules from patent US10023587B2, “Oxabicycloheptanes and oxabicycloheptenes, their preparation and use” (LIXTE BIOTECHNOLOGY, INC., priority 2007, dated 2018).

pIC50: −log10 of the molar value. Values after ≈ are worked out from the molar mass of the structure shown. “Also recorded” adds a separate entry of the source. Read-outs that look alike come from different tables or passages of the source.

One experiment has as its system GBM cell line U373. Briefly: Inhibition of growth of GBM cell line U373 by single agents (cell counts). Type of experiment: cell-based, human. The settings on record: for Inhibition of growth of cell line U373 (in words): single agent, 7 days. From the text: From graphic plots of the glioblastoma multiforme GBM cell line U373 (available from the National Institute of Neurological Disorders and Stroke Molecular Pathogenesis Unit, Building 10, Room 5 D37, National Institutes of Health, 900 Rockville Pike, Bethesda, Md., 20892) as a function of exposure to different doses of drug for 7 days, the concentration of each compound that inhibited brain tumor cell proliferation by 50% (IC50) was estimated.
To identify novel therapeutic targets for the treatment of glioblastoma multiforme (GBM), cantharidin analogues were evaluated for their ability to inhibit growth of glioblastoma multiforme cells. Specifically, GBM cell line U373 was used in evaluations.
The total number of cells is counted in the triplicate cultures at each dose and in controls after 7 days and the average number of cells and the standard deviation is determined.
The amount of inhibition of GBM cell growth is expressed as the proportion of the number of cells in the experimental dishes compared to the number of cells in control dishes containing only the drug vehicle and culture medium. The average percent of control is plotted and bracketed by one standard deviation calculated from the triplicate measurements.
For all cell culture experiments, cells are allowed to grow in the presence or absence of different concentrations of drug or in the presence of the vehicle used to dissolve the drug, PBS for compound 100 and DMSO for compound 102. Cell counts are done in triplicate on day 3 and day 7 and inhibition of growth is expressed as a percentage of the number of cells present in the experimental well divided by the number of cells in a control well.

Another experiment concerns HT-29 cells. In words: CellTiter-Glo assay, HT-29. Type of experiment: cell-based. The settings on record: Homo sapiens; HT-29 Colon, 72 hr; read-out: IC50 (50% Inhibition of Proliferation). As for the experimental part: (§1) MDA-MB-231, HT-29, NCI-H460, NCI-H522, NCI-H69, GXF-209, HepG2, OVAR-3, PANC-1, DU-145, LNCAP, HL-60, K-562, and MOLT-4 cell lines were either obtained from the American Type Culture Collection (ATCC; Manassas, Va.), or from the National Cancer Institute (NCI; Frederick, Md.). RPMI-1640 media, L-glutamine dipeptide (HyQ SG-200), and HEPES were obtained from Hyclone (Logan, Utah).
(§2) All cell lines were routinely cultured twice weekly in RPMI-1640 medium supplemented with 2 mM L-glutamine dipeptide, 10 mM HEPES, and 10% FBS.
(§3) The adherent cell lines MDA-MB-231, HT-29, NCI-H460, NCI-H522, GXF-209, HepG2, OVAR-3, PANC-1, DU-145, and LNCAP cells were each seeded into two 96-well plates at 2,500 cells per well in a total volume of 50 uL and incubated in a 37° C. humidified 5% CO2 cell culture incubator overnight. The suspension cell lines NCI-H69, HL-60, K-562, and MOLT-4 were each seeded into two 96-well plates at 10,000 cell per well in a total volume of 50 uL and incubated in a 37° C. humidified 5% CO2 incubator overnight.
(§4) This was followed by making 2× stocks of the final concentrations required in RPMI-1640 medium. […]
(§5) Briefly, plates were removed from the incubator and placed on the bench at room temperatures for 30 minutes. […] Luminescence was then recorded using the PerkinElmer Microbeta scintillation and luminescence counter (Trilux).

In a further experiment the test system is NCI-H522 cells. Briefly: CellTiter-Glo assay, NCI-H522. Type of experiment: cell-based. The settings on record: Homo sapiens; NCI-H522 Lung adenoca, 72 hr; read-out: IC50 (50% Inhibition of Proliferation). As for the experimental part:
as §1, §2, §3, §4, §5
On the technique in general: In ATP-based viability assays light output follows the ATP content of the culture.

The subject of another experiment is HepG2 cells. In words: CellTiter-Glo assay, HepG2. The settings on record: Homo sapiens; HepG2 Liver, 72 hr; read-out: IC50 (50% Inhibition of Proliferation). Type of experiment: cell-based. As for the experimental part:
as §1, §2, §3, §4, §5

Another experiment concerns HL-60 cells. In words: CellTiter-Glo assay, HL-60. Type of experiment: cell-based. As to conditions: Homo sapiens; HL-60 Leukemia promyelocytic, 72 hr; read-out: IC50 (50% Inhibition of Proliferation). As for the experimental part:
as §1, §2, §3, §4, §5

The next experiment has as its system K-562 cells. In words: CellTiter-Glo assay, K-562. Type of experiment: cell-based. The settings on record: Homo sapiens, K562; K-562 Leukemia chronic myelo, 72 hr; read-out: IC50 (50% Inhibition of Proliferation). How it is done:
as §1, §2, §3, §4, §5

A further experiment concerns C. neoformans. Briefly: Antifungal susceptibility testing (broth dilution), C. neoformans. Type of experiment: cell-based, Cryptococcus neoformans. As to conditions: for MIC: Cryptococcus neoformans, read-out: minimum inhibitory concentration (MIC). How it is done:
(§6) Anti-fungal testing was completed with a common lot for compounds 100 and 102.
(§7) A 10 mg portion of each powder was weighed out and added to 1 ml of sterile distilled water for compound 100 and DMSO for compound 102. The resulting concentration of […] was diluted to a working concentration of 640 μg/ml for each compound. All subsequent dilutions were also made using the respective diluents. Final testing concentrations ranged from 0.125-64 μg/ml.
(§8) A total of 23 isolates were tested to include 3 Candida albicans, 3 Candida glabrata, 3 Cryptococcus neoformans, 3 Aspergillus fumigatus, 3 Rhizopus oryzae, 3, Fusarium solani, 3 Pseudallescheria boydii, and 2 […] rubrum. All isolates were clinical isolates submitted to the Fungus Testing Laboratory for evaluation. Antifungal susceptibility testing was accomplished according to the methods outlined in the National Committee for Clinical Laboratory Standards, M-27A2, Reference Method for Broth Dilution Antifungal Susceptibility Testing of Yeasts; Approved Standard, and M38-A “Reference Method for Broth Dilution Antifungal Susceptibility Testing of Conidium-Forming Filamentous Fungi; Approved Standard”. This includes testing in RPMI-1640 with glutamine and without bicarbonate, an inoculum size of 0.5-2.5×10^3 for yeasts or 1-5×10^4 for moulds, and incubation at 35° C. for 24 and 48 hours.
On the technique in general: Broth dilution looks for growth in wells or tubes with falling amounts of substance.

The subject of another experiment is T. rubrum. In words: Antifungal susceptibility testing (broth dilution), T. rubrum. Type of experiment: cell-based, Trichophyton rubrum. The settings on record: for MIC: Trichophyton rubrum, read-out: minimum inhibitory concentration (MIC); for minimum inhibitory concentration (MIC): isolate 07-2055. How it is done: as §6, §7, §8
The subject of experiment [1] is Fourteen Human Cancer Cell Lines. Briefly: CellTiter-Glo assay, panel of fourteen human cancer cell lines. Type of experiment: cell-based. As to conditions: compared with positive comparator doxorubicin. How it is done: as §1, §2, §3, §4, §5

On to `CC(C)(C)OC(=O)N1CCN(C(=O)C2C(C(=O)O)[C@H]3CC[C@@H]2O3)CC1` (stereo in doubt) [Compound 102, 4-(3-Carboxy-7oxa-bicyclo[2.2.1]heptane-2-carbonyl)piperazine-1-carboxylic acid tert-butyl ester], for which the “Inhibition of growth of cell line U373 (in words)” value with GBM cell line U373 is “highly potent”. Besides, the pIC50 in the experiment with HT-29 cells was 5.44; in the experiment with NCI-H522 cells, 5.66; with HepG2 cells, 4.66; in the experiment on HL-60 cells it was 5.19; with K-562 cells, 4.86. Besides, the MIC is above 64 µg/mL in the experiment with C. neoformans (isolate 07-2665, 24 Hours); above 64 µg/mL in the experiment on C. neoformans (isolate 07-2665, 48 Hours); 2 µg/mL (≈ 5.64 µM) in the experiment with T. rubrum (isolate 07-1743, 24 Hours); 2 µg/mL (≈ 5.64 µM) in the experiment on T. rubrum (isolate 07-1743, 48 Hours). Also, the “minimum inhibitory concentration (MIC)” value in the experiment with C. neoformans (isolate 07-2737, 24 Hours) was above 64 µg/mL; in the experiment on C. neoformans (isolate 07-2737, 48 Hours), above 64 µg/mL; with C. neoformans (isolate 07-2829, 24 Hours) it was above 64 µg/mL; with C. neoformans (isolate 07-2829, 48 Hours), above 64 µg/mL; in the experiment on T. rubrum (24 Hours), 2 µg/mL (≈ 5.64 µM); in the experiment on T. rubrum (48 Hours), 2 µg/mL (≈ 5.64 µM). The “Antifungal activity against T. rubrum (in words)” value in the experiment on T. rubrum (testing concentrations 0.125-64 μg/ml) was “significant activity”. The “Activity against the fourteen cell lines (in words)” value in [1] is on record as “significant activity”.

As for `CN1CCN(C(=O)C2C(C(=O)O)[C@H]3CC[C@@H]2O3)CC1` (some centres unmarked) [Compound 100, Endothall 4-Methylpiperazine Monoamide], the “Inhibitory value against U373, comparison of the two compounds” value in the experiment on GBM cell line U373 (10 μM, seven days (FIG. 8)) was “identical inhibitory values”. Besides, the pIC50 is 5.52 in the experiment with GBM cell line U373 (Homo sapiens, U373 MG, 168 h, U373, exposure for 7 days, estimated from graphic plots (FIG. 1), read-out: concentration that inhibited brain tumor cell proliferation by 50% (IC50)); 5.28 in the experiment with HT-29 cells; 5.47 with NCI-H522 cells; 4.50 in the experiment with HepG2 cells; 5.11 with HL-60 cells; 4.97 with K-562 cells. In addition, the “Inhibition of growth of cell line U373 (in words)” value was “potent inhibitor of GBMs in vitro; also recorded: Increasing dosages demonstrate a greater inhibition of growth; also recorded: modest inhibition of growth” in the experiment on GBM cell line U373 and “inhibitory activities at low micromolar concentrations; also recorded: dose dependent inhibition” with GBM cell line U373 (listed as compound 100). The MIC with C. neoformans (24 h), in the experiment on C. neoformans (48 h), in the experiment with T. rubrum (24 h) and in the experiment on T. rubrum (48 h) was above 64 µg/mL throughout. The “minimum inhibitory concentration (MIC)” value was above 64 µg/mL with C. neoformans (isolate 07-2737, 24 Hours); above 64 µg/mL with C. neoformans (isolate 07-2737, 48 Hours); above 64 µg/mL in the experiment with C. neoformans (isolate 07-2829, 24 Hours); above 64 µg/mL with C. neoformans (isolate 07-2829, 48 Hours); above 64 µg/mL in the experiment on T. rubrum (24 Hours); above 64 µg/mL in the experiment on T. rubrum (48 Hours). The “Activity against the fourteen cell lines (in words)” value in experiment [1] is “significant activity”.
